Holding throughout (type): biochemical
The target in assay [1] is T1, HGFA (Homo sapiens, UniProt Q04756).
T1 construct: His6 tag (N); seven amino acid spacer and seven amino acid TEV cleavage site (N); Honey Bee melittin signal peptide (N); made in house; host or cells: High 5 insect cells (baculovirus; virus raised in Sf9)
T1 sequence (Q04756 373-655): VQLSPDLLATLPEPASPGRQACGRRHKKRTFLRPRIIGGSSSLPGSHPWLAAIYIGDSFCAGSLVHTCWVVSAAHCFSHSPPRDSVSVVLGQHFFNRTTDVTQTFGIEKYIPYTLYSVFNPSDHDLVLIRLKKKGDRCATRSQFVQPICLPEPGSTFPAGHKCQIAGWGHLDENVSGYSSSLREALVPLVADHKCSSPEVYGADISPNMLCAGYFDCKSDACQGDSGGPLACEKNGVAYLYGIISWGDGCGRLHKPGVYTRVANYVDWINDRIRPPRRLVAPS
Briefly: Fluorescent kinetic enzyme inhibitor assay of HGFA. The note with it: read-out: HGFA Ki. The text has this:
Using primers identified as SEQ ID NO 1, SEQ ID NO 2, and standard PCR protocols, the nucleotide sequence encoding amino acids 373-655 of HGFA was synthesized. This PCR product was cloned into the SfoI-HindIII sites of a modified pFastBac HT baculovirus expression vector (Addgene, Cambridge, Mass.). This vector contains a six amino His tag followed by a seven amino spacer and a seven amino acid TEV cleavage site placed immediately downstream of the Honey Bee melittin signal peptide. Using a modified Bac to Bac Expression System (Life Technologies, Carlsbad, Calif.), recombinant HGFA bacmids were obtained by transforming DH10Bac Escherichia coli cells. To obtain HGFA containing baculovirus, purified bacmids were transfected into Sf9 insect cells. After 5 days in culture at 27° C., media was harvested from transfected Sf9 cells. This media was used to prepare baculovirus infected insect cells (BIICs). These BIIICs were used to infect High 5 insect cells. Four days post infection, media was harvested and recombinant protein prepared as follows. Media was chilled to 4° C. and spun at 4000×g for 20 minutes (all subsequent steps were performed at 4° C. unless noted). Clarified media was passed first through a Whatman GF/B 1 um (#1821-047, GE Healthcare Life Sciences, Piscataway, N.J.) and then a 0.22 um PES membrane (#99955, TPP Techno Plastic Products AG, Trasadingen, Switzerland) and then concentrated using a Pall Centramate tangential flow system and Centramate T-series Cassette (#OS010T12, Pall Corporation, Port Washington, N.Y.). Concentrated media was then buffer exchanged in two steps, five volumes of 50 mM Na-phosphate, 500 mM NaCl, pH 6.2, followed by five volumes of 50 mM Na-phosphate, 500 mM NaCl, pH 7.5. The concentrated and buffered exchanged insect cell media was again filtered as above and made 25 mM imidazole (#1202, Sigma-Aldrich, St. Louis, Mo.) and was mixed with nickel agarose beads (#H-321-25, Gold Biotechnology, Inc., St. Louis Mo.). After mixing this slurry for 12 hours, nickel agarose beads were allowed to settle by gravity and then loaded into a column. Beads were washed with buffer (25 mM Na-phosphate, 500 mM NaCl, 25 mM imidazole, pH 8) and the bound protein eluted using (25 mM Na-phosphate, 500 mM NaCl, 250 mM imidazole, pH 8). Using a Amicon Ultra-4 Centrifugal filters (#UFC801008, Merck Millipore, Ltd., Tullagreen, Ireland), peak protein fractions were concentrated and run over a Superdex-200 10/300 GL column (GE Healthcare Life Sciences, Piscataway, N.J.) in 10 mM Tris, 200 mM NaCl, 0.2 mM EDTA, pH 8. HGFA containing fractions were pooled, concentrated, made 50% glycerol, and stored at minus 20° C. Protein was quantitated using a modified Lowry protein assay (#500-0006, Bio-Rad Laboratories, Hercules, Calif.).
Inhibitors (11-pt serial dilutions, 0-20 μM final concentration in reaction) were serially diluted in DMSO (2% DMSO final concentration) and then mixed with either recombinant serine protease domain of HGFA [Z. Han, P. K. Harris, D. E. Jones, R. Chugani, T. Kim, M. Agarwal, W. Shen, S. A. Wildman, J. W. Janetka, Acs Med Chem Lett 2014, 5, 1219-1224], matriptase (Charles Craik, UCSF) or hepsin* (#4776-SE-010, R&D Systems, Minneapolis, Minn.) in black 384 well plates (Corning #3575. Corning, N.Y.). […] The final substrate concentrations for all assays were at the Km for the respective enzymes. Changes in fluorescence (excitation at 380 nm and emission at 460 nm) were measured at room temperature over time in a Biotek Synergy 2 plate reader (Winnoski, Vt.). Using GraphPad Prism version 6.04 software program, (GraphPad Software, San Diego, Calif., www.graphpad.com), a four parameter curve fit was used to determine the inhibitor IC50s from a plot of the mean reaction velocity versus the inhibitor concentration. The IC50 values represent the average of three separate experimental determinations.

A further assay concerns the target T2, hepsin (Homo sapiens, UniProt P05981).
T2 construct: purchased R&D Systems 4776-SE-010
Briefly: P4-P2 substrate specificity using HyCoSuL, hepsin. Further details: concentration or dose not given beside the values. The note with it: HyCoSuL substrate library. On the procedure: (§1) Each of the P4, P3, and P2 sublibraries were screened at the 100 μM concentration with hepsin either HGFA in a 100 μL final volume per well (99 μL of protease in buffer+1 μL of 10 mM substrates mixture). The total time of the assay was 30 minutes, however only linear portions of the progress curve (5-15 minutes) were used for velocity (RFU/s) calculations. Each sublibrary screening was repeated at least 3-times and the average value calculated from each measurement was used to create the substrate specificity matrix—the best recognized amino acid in each position was set to 100%, and other amino acids were adjusted accordingly.
Recombinant human hepsin (10 μg in 20 uL, 4776-SE-010, R&D Systems) was added to the 100 μL of activation buffer (0.1 M Tris, 0.15 M NaCl, 0.01 M CaCl2, 0.05% TRITON-X, pH=8.0) and incubated at 37° C. for 24 hours (hepsin concentration in activation buffer 2 μM). Once activated hepsin was diluted in assay buffer (0.05 M Tris, pH=9.0) to the final concentration of 4 nM and incubated at 37° C. for 15 minutes before added to a substrate.

Assay [2] concerns the target T3, HGFA (Homo sapiens, UniProt Q04756).
T3 sequence (Q04756 408-655 limits assumed): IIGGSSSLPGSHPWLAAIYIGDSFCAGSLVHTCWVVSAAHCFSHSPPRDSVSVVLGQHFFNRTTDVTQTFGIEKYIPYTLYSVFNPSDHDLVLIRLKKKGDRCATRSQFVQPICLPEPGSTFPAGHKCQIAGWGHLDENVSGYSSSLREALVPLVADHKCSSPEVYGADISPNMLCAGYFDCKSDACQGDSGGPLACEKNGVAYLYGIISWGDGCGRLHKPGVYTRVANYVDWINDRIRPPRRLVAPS
T3 sequence (Q04756 373-407 partner limits assumed): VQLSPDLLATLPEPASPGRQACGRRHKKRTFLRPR
The assay can be described thus: P4-P2 substrate specificity using HyCoSuL, HGFA. Further details: P3 Position % Activity HGFA / P2 Position % Activity HGFA: concentration or dose not given beside the values; P4 Position % Activity HGFA: tested at 100 µM. The note with it: HyCoSuL substrate library. On the procedure:
as §1
HFGA enzyme was diluted in the assay buffer (0.15 M NaCl, 0.025 M Tris, 0.005 M CaCl2, pH=8.0) to the final concentration of 10-20 nM (depending of sublibrary) and incubated at 25° C. for 30 minutes before added to a substrate.

The mark [3] stands for this setting: amino acid fixed at P2 position.
Setting [4] is: amino acid fixed at P3 position.
The mark [5] stands for this setting: amino acid fixed at P4 position.

Where two headings read alike, the source gives them in different places. Positions of bridges follow the written chain, without caps; N, C: chain ends. Residues, ends and D or L forms follow the SMILES beside them. *: point of attachment. X2 = N=C(N)NCCC[C@H](N*)C(=O)c1nccs1 Bounds are passed on as bounds.

T2 sequence (P05981 163-417 limits assumed): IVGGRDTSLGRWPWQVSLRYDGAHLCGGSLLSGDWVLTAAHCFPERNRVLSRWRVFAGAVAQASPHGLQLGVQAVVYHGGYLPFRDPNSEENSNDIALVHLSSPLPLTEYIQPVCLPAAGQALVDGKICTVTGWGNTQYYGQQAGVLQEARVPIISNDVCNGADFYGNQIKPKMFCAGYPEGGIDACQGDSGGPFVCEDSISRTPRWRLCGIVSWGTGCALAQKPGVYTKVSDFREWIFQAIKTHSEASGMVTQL
T2 sequence (P05981 45-162 partner limits assumed): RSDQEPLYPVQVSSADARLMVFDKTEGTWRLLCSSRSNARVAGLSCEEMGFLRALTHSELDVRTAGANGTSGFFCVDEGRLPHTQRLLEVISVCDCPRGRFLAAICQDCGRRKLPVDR

As for `N=C(N)NCCC[C@H](NC(=O)[C@H](Cc1ccccc1)NC(=O)[C@@H](N)Cc1c[nH]c2ccccc12)C(=O)c1nc2ccccc2s1` [Compound 1-13A1, H-WFR-kbt], the Ki – broadly, a dissociation constant, usually derived from enzyme kinetics or from competition with a known ligand – at HGFA [1] (Table 6.1, Fluorogenic Assay) is 5.68 µM.

Turning to `CC(C)C[C@H](NC(=O)[C@H](N)Cc1c[nH]c2ccccc12)C(=O)N[C@@H](CCCNC(=N)N)C(=O)c1nc2ccccc2s1` [Compound 1-15A1, H-dWLR-kbt], the Ki on HGFA [1] (Table 6.1, Fluorogenic Assay) was determined as 0.128 µM.

Take `N=C(N)NCCC[C@H](NC(=O)[C@H](Cc1ccccc1)NC(=O)[C@H](N)Cc1c[nH]c2ccccc12)C(=O)c1nc2ccccc2s1` [Compound 1-18A1, H-dWFR-kbt]: the Ki on HGFA [1] (Table 6.1, Fluorogenic Assay) was 2.25 µM.

As for `CC(C)C[C@H](NC(=O)[C@H](Cc1c[nH]c2ccccc12)NC(=O)[C@@H](N)Cc1cncn1COCc1ccccc1)C(=O)N[C@@H](CCCNC(=N)N)C(=O)c1nc2ccccc2s1` [Compound 1-54A1, H-His(Bom)WLR-kbt], at HGFA [1] (Table 6.1, Fluorogenic Assay), the Ki worked out at 3.71 µM.

With `CC(C)C[C@H](NC(=O)[C@@H](N)Cc1c[nH]c2ccccc12)C(=O)N[C@@H](CCCNC(=N)N)C(=O)c1nc2ccc(C(=O)O)cc2s1` [Compound 1-56A1, H-WLR-kbt-COOH], the inhibitory constant (Ki) on HGFA [1] (Table 6.1, Fluorogenic Assay) turned out to be 1.38 µM.

On to `CC(C)C[C@H](NC(=O)[C@H](N)Cc1c[nH]c2ccccc12)C(=O)N[C@@H](CCCNC(=N)N)C(=O)c1nc2ccc(C(=O)O)cc2s1` [Compound 1-57A1, H-dWLR-kbt-COOH], for which the inhibitory constant (Ki) at HGFA [1] (Table 6.1, Fluorogenic Assay) came to 0.346 µM.

Regarding `CC(C)C[C@H](NC(=O)[C@H](CCCNC(=N)N)NC(=O)[C@H](CCCCN)NC(=O)CCCCC[N+]1=C(/C=C/C=C/C=C2/N(C)c3ccc4ccccc4c3C2(C)C)C(C)(C)c2c1ccc1ccccc21)C(=O)N[C@@H](CCCNC(=N)N)C(=O)c1nc2ccccc2s1` [Compound 1178-2, Cy5.5-KRLR(SEQ ID NO: 8)-kbt], the Ki at HGFA [1] (Table 6.1, Fluorogenic Assay) was 0.608 µM.

In the case of `CC(C)C[C@H](NC(=O)[C@H](CCCNC(=N)N)NC(=O)[C@H](CCCCN)NC(=O)CCCCC[N+]1=C(/C=C/C=C/C=C2/N(C)c3ccc4ccccc4c3C2(C)C)C(C)(C)c2c1ccc1ccccc21)C(=O)N[C@@H](CCCNC(=N)N)C(=O)CCl` [Compound 1179, Cy5.5-KRLR(SEQ ID NO: 8)-cmk], the Ki at HGFA [1] (Table 6.1, Fluorogenic Assay) was 0.0341 µM.

In the case of `N=C(N)NCCC[C@H](NC(=O)[C@@H]1CC(=O)NCCCC[C@H](N)C(=O)N[C@@H](CCC(N)=O)C(=O)N1)C(=O)N[C@@H](CCCNC(=N)N)C(=O)c1nccs1` [Compound 7074, (2S,5S,13S)-13-amino-2-(3-amino-3-oxopropyl)-N—((S)-5-guanidino-1-(((S)-5-guanidino-1-oxo-1-(thiazol-2-yl)pentan-2-yl)amino)-1-oxopentan-2-yl)-3,7,14-trioxo-1,4,8-triazacyclotetradecane-5-carboxamide] (H-KQDR-X2; lactam 1-3), the Ki at HGFA [1] (Table 7.1, first HGFA column) came to 5.94 µM; at HGFA [1] (Table 7.1, second column headed HGFA), 0.00155 µM.

For the molecule `N=C(N)NCCC[C@H](NC(=O)[C@H](CC(N)=O)NC(=O)OCC1c2ccccc2-c2ccccc21)C(=O)c1nc2ccccc2s1` [Compound 7185-3, Fmoc-NR-kbt], the Ki at HGFA [1] (Table 6.1, Fluorogenic Assay) is > 20 µM.

As for `N=C(N)NCCC[C@H](NC(=O)[C@H](CC(=O)O)NC(=O)OCC1c2ccccc2-c2ccccc21)C(=O)c1nc2ccccc2s1` [Compound 7185-4, Fmoc-DR-kbt], the inhibition constant Ki on HGFA [1] (Table 6.1, Fluorogenic Assay) was > 20 µM.

For `N=C(N)NCCC[C@H](NC(=O)[C@H](CCC(=O)O)NC(=O)OCC1c2ccccc2-c2ccccc21)C(=O)c1nc2ccccc2s1` [Compound 7185-7, Fmoc-ER-kbt], at HGFA [1] (Table 6.1, Fluorogenic Assay), the Ki is > 20 µM.

With `N=C(N)NCCC[C@H](NC(=O)[C@H](Cc1cnc[nH]1)NC(=O)OCC1c2ccccc2-c2ccccc21)C(=O)c1nc2ccccc2s1` [Compound 7185-9, Fmoc-HR-kbt], the Ki at HGFA [1] (Table 6.1, Fluorogenic Assay) is 6.36 µM.

In the case of `CC[C@H](C)[C@H](NC(=O)OCC1c2ccccc2-c2ccccc21)C(=O)N[C@@H](CCCNC(=N)N)C(=O)c1nc2ccccc2s1` [Compound 7185-10, Fmoc-IR-kbt], on HGFA [1] (Table 6.1, Fluorogenic Assay), the Ki stood at 6.47 µM.

As to `N=C(N)NCCC[C@H](NC(=O)[C@H](CCCCN)NC(=O)OCC1c2ccccc2-c2ccccc21)C(=O)c1nc2ccccc2s1` [Compound 7185-12, Fmoc-KR-kbt], the Ki on HGFA [1] (Table 6.1, Fluorogenic Assay) is > 20 µM.

As for `N=C(N)NCCC[C@H](NC(=O)[C@@H]1CCCN1C(=O)OCC1c2ccccc2-c2ccccc21)C(=O)c1nc2ccccc2s1` [Compound 7187-15, Fmoc-PR-kbt], the Ki on HGFA [1] (Table 6.1, Fluorogenic Assay) was > 20 µM.

For `N=C(N)NCCC[C@H](NC(=O)[C@H](CO)NC(=O)OCC1c2ccccc2-c2ccccc21)C(=O)c1nc2ccccc2s1` [Compound 7187-16, Fmoc-SR-kbt], the Ki at HGFA [1] (Table 6.1, Fluorogenic Assay) was > 20 µM.

On to `C[C@@H](O)[C@H](NC(=O)OCC1c2ccccc2-c2ccccc21)C(=O)N[C@@H](CCCNC(=N)N)C(=O)c1nc2ccccc2s1` [Compound 7188-17, Fmoc-TR-kbt], for which, at HGFA [1] (Table 6.1, Fluorogenic Assay), the Ki was > 20 µM.

As to D-Arg, on hepsin (setting [3]), the “P2 Position % Activity Hepsin” value was found to be 0.00%. Further, the “P3 Position % Activity Hepsin” value at hepsin (setting [4]) worked out at 66.08%. In addition, the “P4 Position % Activity Hepsin” value at hepsin (setting [5]) is given as 44.37%. In addition, the “P2 Position % Activity HGFA” value at HGFA [2] (setting [3]) is 0.00%. Further, the “P3 Position % Activity HGFA” value at HGFA [2] (setting [4]) was determined as 29.10%. Moreover, the “P4 Position % Activity HGFA” value at HGFA [2] (setting [5]) was determined as 23.20%.
